Assay results taken from ChEMBL document CHEMBL4627344, “Synthesis, biological evaluation and virtual screening of some acridone derivatives as potential anticancer agents” (2020).

Assays:
Assay type in all cases: functional
U-251 = assay: Antiproliferative activity against human U251 cells assessed as inhibition of cell growth at 10 uM measured after 48 hrs by SRB assay relative to control; details: U-251, 48 h, read-out: GI
NCI-H226 [1] = assay: Antiproliferative activity against human NCI-H226 cells assessed as inhibition of cell growth at 10 uM measured after 48 hrs by SRB assay relative to control; details: NCI-H226, 48 h, read-out: GI
UO-31 = assay: Antiproliferative activity against human UO31 cells assessed as inhibition of cell growth measured after 48 hrs by SRB assay; details: UO-31, 48 h
PC-3 = assay: Antiproliferative activity against human PC3 cells assessed as inhibition of cell growth at 10 uM measured after 48 hrs by SRB assay relative to control; details: PC-3, 48 h, read-out: GI
SW-620 [2] = assay: Antiproliferative activity against human SW620 cells assessed as inhibition of cell growth at 10 uM measured after 48 hrs by SRB assay relative to control; details: SW-620, 48 h, read-out: GI
HCT-116 = assay: Antiproliferative activity against human HCT116 cells assessed as inhibition of cell growth at 10 uM measured after 48 hrs by SRB assay relative to control; details: HCT-116, 48 h, read-out: GI
M14 = assay: Antiproliferative activity against human M14 cells assessed as inhibition of cell growth measured after 48 hrs by SRB assay; details: M14, 48 h
COLO 205 = assay: Antiproliferative activity against human COLO205 cells assessed as inhibition of cell growth measured after 48 hrs by SRB assay; details: COLO 205, 48 h
NCI-H322M = assay: Antiproliferative activity against human NCI-H322M cells assessed as inhibition of cell growth measured after 48 hrs by SRB assay
A549 [3] = assay: Antiproliferative activity against human A549 cells assessed as inhibition of cell growth measured after 48 hrs by SRB assay; details: A549, 48 h
OVCAR-8 = assay: Antiproliferative activity against human OVCAR8 cells assessed as inhibition of cell growth at 10 uM measured after 48 hrs by SRB assay relative to control; details: OVCAR-8, 48 h, read-out: GI
SR [4] = assay: Antiproliferative activity against human SR cells assessed as inhibition of cell growth at 10 uM measured after 48 hrs by SRB assay relative to control; details: read-out: GI
HCC 2998 [5] = assay: Antiproliferative activity against human HCC2998 cells assessed as inhibition of cell growth at 10 uM measured after 48 hrs by SRB assay relative to control; details: HCC 2998, 48 h, read-out: GI
MDA-MB-468 = assay: Antiproliferative activity against human MDA-MB-468 cells assessed as inhibition of cell growth at 10 uM measured after 48 hrs by SRB assay relative to control; details: MDA-MB-468, 48 h, read-out: GI
BT-549 [6] = assay: Antiproliferative activity against human BT549 cells assessed as inhibition of cell growth at 10 uM measured after 48 hrs by SRB assay relative to control; details: BT-549, 48 h, read-out: GI
CAKI-1 = assay: Antiproliferative activity against human CAKI-1 cells assessed as inhibition of cell growth measured after 48 hrs by SRB assay; details: CAKI-1, 48 h
BT-549 [7] = assay: Antiproliferative activity against human BT549 cells assessed as inhibition of cell growth measured after 48 hrs by SRB assay; details: BT-549, 48 h
A549 [8] = assay: Antiproliferative activity against human A549 cells assessed as inhibition of cell growth at 10 uM measured after 48 hrs by SRB assay relative to control; details: A549, 48 h, read-out: GI
HCC 2998 [9] = assay: Antiproliferative activity against human HCC2998 cells assessed as inhibition of cell growth measured after 48 hrs by SRB assay; details: HCC 2998, 48 h
MOLT-4 = assay: Antiproliferative activity against human MOLT4 cells assessed as inhibition of cell growth measured after 48 hrs by SRB assay; details: MOLT-4, 48 h
SW-620 [10] = assay: Antiproliferative activity against human SW620 cells assessed as inhibition of cell growth measured after 48 hrs by SRB assay; details: SW-620, 48 h
SK-MEL-5 = assay: Antiproliferative activity against human SK-MEL-5 cells assessed as inhibition of cell growth measured after 48 hrs by SRB assay; details: SK-MEL-5, 48 h
786-0 = assay: Antiproliferative activity against human 786-0 cells assessed as inhibition of cell growth measured after 48 hrs by SRB assay; details: 786-0, 48 h
ACHN = assay: Antiproliferative activity against human ACHN cells assessed as inhibition of cell growth at 10 uM measured after 48 hrs by SRB assay relative to control; details: read-out: GI
NCI-H23 = assay: Antiproliferative activity against human NCI-H23 cells assessed as inhibition of cell growth measured after 48 hrs by SRB assay; details: NCI-H23, 48 h
MDA-MB-435 = assay: Antiproliferative activity against human MDA-MB-435 cells assessed as inhibition of cell growth at 10 uM measured after 48 hrs by SRB assay relative to control; details: MDA-MB-435, 48 h, read-out: GI
SF-295 [11] = assay: Antiproliferative activity against human SF295 cells assessed as inhibition of cell growth measured after 48 hrs by SRB assay; details: SF-295, 48 h
SR [12] = assay: Antiproliferative activity against human SR cells assessed as inhibition of cell growth measured after 48 hrs by SRB assay
MCF7 = assay: Antiproliferative activity against human MCF7 cells assessed as inhibition of cell growth measured after 48 hrs by SRB assay; details: MCF7, 48 h
SNB-19 = assay: Antiproliferative activity against human SNB19 cells assessed as inhibition of cell growth measured after 48 hrs by SRB assay; details: SNB-19, 48 h
SF-295 [13] = assay: Antiproliferative activity against human SF295 cells assessed as inhibition of cell growth at 10 uM measured after 48 hrs by SRB assay relative to control; details: SF-295, 48 h, read-out: GI
NCI-H226 [14] = assay: Antiproliferative activity against human NCI-H226 cells assessed as inhibition of cell growth measured after 48 hrs by SRB assay; details: NCI-H226, 48 h
NCI-H522 = assay: Antiproliferative activity against human NCI-H522 cells assessed as inhibition of cell growth at 10 uM measured after 48 hrs by SRB assay relative to control; details: NCI-H522, 48 h, read-out: GI
OVCAR-3 = assay: Antiproliferative activity against human OVCAR3 cells assessed as inhibition of cell growth measured after 48 hrs by SRB assay; details: OVCAR-3, 48 h
MDA-MB-231 = assay: Antiproliferative activity against human MDA-MB-231 cells assessed as inhibition of cell growth at 10 uM measured after 48 hrs by SRB assay relative to control; details: MDA-MB-231, 48 h, read-out: GI
KM12 = assay: Antiproliferative activity against human KM12 cells assessed as inhibition of cell growth measured after 48 hrs by SRB assay; details: KM12, 48 h

Q: Which results are given for `O=C1CC(c2ccccc2)Cc2nc3ccc(Cl)cc3cc21` (stereo unspecified)?
A: inhibition of growth at 10 µM (U-251): 81.2%; inhibition of growth at 10 µM (NCI-H226 [1]): 79.2%; GI50 (UO-31): 489 nM; inhibition of growth at 10 µM (PC-3): 72.3%; inhibition of growth at 10 µM (SW-620 [2]): 77%; inhibition of growth at 10 µM (HCT-116): 94.5%; GI50 (M14): 38 nM; GI50 (COLO 205): 346 nM; GI50 (NCI-H322M): 720 nM; GI50 (A549 [3]): 420 nM; inhibition of growth at 10 µM (OVCAR-8): 77.6%; inhibition of growth at 10 µM (SR [4]): 87%; inhibition of growth at 10 µM (HCC 2998 [5]): 94.7%; inhibition of growth at 10 µM (MDA-MB-468): 89.8%; inhibition of growth at 10 µM (BT-549 [6]): 95.4%; GI50 (CAKI-1): 151 nM; GI50 (BT-549 [7]): 500 nM; inhibition of growth at 10 µM (A549 [8]): 76.7%; GI50 (HCC 2998 [9]): 2890 nM; GI50 (MOLT-4): 67.5 nM; GI50 (SW-620 [10]): 370 nM; GI50 (SK-MEL-5): 203 nM; GI50 (786-0): 838 nM; inhibition of growth at 10 µM (ACHN): 69.2%; GI50 (NCI-H23): 517 nM; inhibition of growth at 10 µM (MDA-MB-435): 139%; GI50 (SF-295 [11]): 196 nM; GI50 (SR [12]): 53.2 nM; GI50 (MCF7): 2550 nM; GI50 (SNB-19): 425 nM; inhibition of growth at 10 µM (SF-295 [13]): 103%; GI50 (NCI-H226 [14]): 1610 nM; inhibition of growth at 10 µM (NCI-H522): 97%; GI50 (OVCAR-3): 302 nM; inhibition of growth at 10 µM (MDA-MB-231): 80.5%; GI50 (KM12): 349 nM
